Assay results published in patent publication US20260125360A1, “HERBICIDAL IMIDAZOLE COMPOUNDS” (SYNGENTA CROP PROTECTION AG, priority 2022, published 2026).

How the values were obtained:
Format in all cases: in vivo
Conditions in all cases: 250 g/ha, evaluated after 13 days
[1] = tested on: Amaranthus palmeri (AMAPA); test: Post-emergence herbicide glasshouse test
Method in brief: (§1)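 Species sown in standard soil and sprayed 1 day (pre-emergence) or 8 days (post-emergence) after sowing, at 250 g/ha unless noted, in acetone/water (50:50) with 0.5% Tween 20. Glasshouse at 24/16 °C day/night, 14 h light, 65% humidity. Percentage damage scored after 13 days on a 1–5 scale (5=81–100%, 1=0–20%).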

[2] = tested on: Amaranthus retoflexus (AMARE); test: Post-emergence herbicide glasshouse test
Method in brief: as §1

[3] = tested on: Echinochloa crus-galli (ECHCG); test: Post-emergence herbicide glasshouse test
Method in brief: as §1

[4] = tested on: Ipomoea hederacea (IPOHE); test: Post-emergence herbicide glasshouse test
Method in brief: as §1

[5] = tested on: Amaranthus palmeri (AMAPA); test: Pre-emergence herbicide glasshouse test
Method in brief: as §1

[6] = tested on: Amaranthus retoflexus (AMARE); test: Pre-emergence herbicide glasshouse test
Method in brief: as §1

[7] = tested on: Echinochloa crus-galli (ECHCG); test: Pre-emergence herbicide glasshouse test
Method in brief: as §1

[8] = tested on: Ipomoea hederacea (IPOHE); test: Pre-emergence herbicide glasshouse test
Method in brief: as §1

| Structure (SMILES) | percentage damage caused to the plant, AMAPA (five-point scale) [1] | percentage damage caused to the plant, AMARE (five-point scale) [2] | percentage damage caused to the plant, ECHCG (five-point scale) [3] | percentage damage caused to the plant, IPOHE (five-point scale) [4] | percentage damage caused to the plant, AMAPA (five-point scale) [5] | percentage damage caused to the plant, AMARE (five-point scale) [6] | percentage damage caused to the plant, ECHCG (five-point scale) [7] | percentage damage caused to the plant, IPOHE (five-point scale) [8] |
| --- | --- | --- | --- | --- | --- | --- | --- | --- |
| CS(=O)(=O)c1ccc(-c2nc(C(F)(F)F)cn2Cc2ccc(Cl)s2)cc1 [Compound 1.175] | 4 (4=61-80%) | 4 (4=61-80%) | 1 (1=0-20%) | 2 (2=21-40%) | 4 (4=61-80%) | 5 (5=81-100%) | 2 (2=21-40%) | 1 (1=0-20%) |
| Cc1noc(Cn2cc(C(F)(F)F)nc2-c2ccc(S(C)(=O)=O)cc2)n1 [Compound 1.176] | 1 (1=0-20%) | 1 (1=0-20%) | 1 (1=0-20%) | 1 (1=0-20%) | 1 (1=0-20%) | 1 (1=0-20%) | 1 (1=0-20%) | 1 (1=0-20%) |
| Cc1cc(Cn2cc(C(F)(F)F)nc2-c2ccc(S(C)(=O)=O)cc2)no1 [Compound 1.177] | 5 (5=81-100%) | 5 (5=81-100%) | 3 (3=41-60%) | 5 (5=81-100%) | 5 (5=81-100%) | 5 (5=81-100%) | 5 (5=81-100%) | 5 (5=81-100%) |
| Cc1nnc(Cn2cc(C(F)(F)F)nc2-c2ccc([S+](C)[O-])cc2)s1 (stereo not drawn) [Compound 1.178] | 1 (1=0-20%) | 1 (1=0-20%) | 1 (1=0-20%) | 1 (1=0-20%) | 3 (3=41-60%) | 3 (3=41-60%) | 1 (1=0-20%) | 4 (4=61-80%) |
| CCON=Cc1cn(Cc2cc(C)on2)c(-c2cnc(Cl)c(F)c2)n1 [Compound 1.179] | 3 (3=41-60%) | 3 (3=41-60%) | 1 (1=0-20%) | 1 (1=0-20%) | 5 (5=81-100%) | 4 (4=61-80%) | 1 (1=0-20%) | 1 (1=0-20%) |
| CON=Cc1cn(Cc2ncn(C)n2)c(-c2cnc(Cl)c(F)c2)n1 [Compound 1.180] | 2 (2=21-40%) | 1 (1=0-20%) | 1 (1=0-20%) | 4 (4=61-80%) | 4 (4=61-80%) | 5 (5=81-100%) | 1 (1=0-20%) | 5 (5=81-100%) |
| Cc1nnc(Cn2cc(C(F)(F)F)nc2-c2cnc(Cl)c(F)c2)o1 [Compound 1.181] | 4 (4=61-80%) | 4 (4=61-80%) | 1 (1=0-20%) | 1 (1=0-20%) | 5 (5=81-100%) | 5 (5=81-100%) | 3 (3=41-60%) | 4 (4=61-80%) |
| Cn1cnc(Cn2cc(C#N)nc2-c2cnc(Cl)c(F)c2)n1 [Compound 1.182] | 4 (4=61-80%) | 5 (5=81-100%) | 3 (3=41-60%) | 3 (3=41-60%) | 5 (5=81-100%) | 5 (5=81-100%) | 4 (4=61-80%) | 5 (5=81-100%) |
| Cc1nnc(Cn2cc(C(F)(F)F)nc2-c2ccc(F)c(F)c2)o1 [Compound 1.183] | 5 (5=81-100%) | 5 (5=81-100%) | 2 (2=21-40%) | 4 (4=61-80%) | 5 (5=81-100%) | 5 (5=81-100%) | 3 (3=41-60%) | 5 (5=81-100%) |
| Cn1cnc(Cn2cc(C#N)nc2-c2ccc(F)c(F)c2)n1 [Compound 1.184] | 5 (5=81-100%) | 5 (5=81-100%) | 4 (4=61-80%) | 5 (5=81-100%) | 5 (5=81-100%) | 5 (5=81-100%) | 5 (5=81-100%) | 5 (5=81-100%) |
| Cc1cc(Cn2cc(C#N)nc2-c2cnc(Cl)c(F)c2)no1 [Compound 1.185] | 4 (4=61-80%) | 4 (4=61-80%) | 1 (1=0-20%) | 3 (3=41-60%) | 5 (5=81-100%) | 5 (5=81-100%) | 3 (3=41-60%) | 4 (4=61-80%) |
| Cc1cc(Cn2cc(C(F)(F)F)nc2-c2ccc(F)c(F)c2)no1 [Compound 1.192] | 5 (5=81-100%) | 5 (5=81-100%) | 5 (5=81-100%) | 5 (5=81-100%) | 5 (5=81-100%) | 5 (5=81-100%) | 5 (5=81-100%) | 5 (5=81-100%) |
